We go through four compounds from patent US10457680B2, “Process for preparing a PARP inhibitor, crystalline forms, and uses thereof” (BeiGene, Ltd., priority 2015, dated 2019).

Like-named read-outs stand apart in the source and are kept apart here.

By EC50 is commonly meant the concentration that produces a half-maximal response. For orientation: bioavailability means the share of a dose that reaches the circulation, judged against a reference dose that is usually intravenous. What is called clearance is the volume of plasma or blood freed of the substance per unit of time. One may read the solubility as how much of the substance goes into solution per volume.

One data set has as its system MDA-MB-231 cells. As to the kind of experiment: Growth inhibition, CellTiter-Glo, 7-day exposure, MDA-MB-231. The class given is cell-based. The note with it: BRCA wild type. As to the method: (§1) MDA-MB-231 cells that is not BRCA gene mutant or other homologous recombination deficient were maintained in DMEM supplemented with fetal bovine serum (10% FBS), 100 units/ml penicillin and 0.1 mg/ml streptomycin. BRCA1-deficient cell line MDA-MB-436 was maintained in RPMI-1640 supplemented with 10% FBS, 100 units/ml penicillin and 0.1 mg/ml streptomycin. Both two cell lines were kept at 95% humidity and 5% CO2 in a 37° C. incubator.
(§2) The number of tumor cells seeded per well of a 96-well plate was optimized for each cell line to ensure logarithmic growth over the 7 days treatment period. Cells were left to attach for 16 hours and then treated with specific concentrations of test compounds. Following a 7-day exposure to the compound, the growth-inhibitory activity of compounds was determined using CellTiter-Glo luminescent cell viability assay (Promega). Luminescent signal was measured using PHERAstar FS reader (BMG Labtech). Cell viability was expressed as relative to mock treatment control. EC50 values for growth inhibition were calculated by fitting dose-dependent data to the four-parameter logistic model using XLfit software.
For orientation: ATP-based viability assays read luminescence as a measure of living cells.

For data set [1], the system named is MDA-MB-436 cells (BRCA1 Deficient). As to the kind of experiment: Growth inhibition, CellTiter-Glo, 7-day exposure, MDA-MB-436. The class given is cell-based, human. The note with it: for EC50: 7-day exposure, BRCA1 Deficient, read-out: EC50 for growth inhibition, MDA-MB-436 (Table 20). As to the method: as §1, §2
Another data set concerns PARP. Nature of the data set: In vivo pharmacodynamics: PARylation in MDA-MB-436 breast cancer xenografts. More on the design: species or system BALB/c nude mice. Conditions: 4 hours after single oral dose at 0.34 mg/kg or higher.
Data set [2] relates to intracranial H209 xenografts. Nature of the data set: Intracranial H209 xenografts, combination with TMZ. The class given is in vivo, Mice. Conditions: Compound A added to TMZ, compared to TMZ single agent.
A short description of the next data set: Brain penetration. Conditions: in vivo.
A short description of data set [3]: Nonclinical toxicity, single and repeat dose studies up to 28 days. The class given is in vivo. Conditions: rats and dogs. The text has this: The nonclinical toxicity profile of Compound A was characterized in both rats and dogs in single and repeat dose studies up to 28 days. The adverse effects included decrease in body weights or body weight gain and food consumption; decrease in WBC, NEUT, LYMP, RBC, HGB, HCT and APTT; and increase in PLT. The bone marrow was considered to be the major target organ and the severity of histopathological changes ranged from minimal to marked. […] […]. In summary, the available toxicological data are adequate to support the clinical development of Compound A on late stage and advanced cancer patients in phase I study. The toxicity could be monitored and manageable clinically.

Another data set addresses hERG current (Homo sapiens, UniProt Q12809). Nature of the data set: hERG current. The class given is cell-based. On the technique in general: Block of hERG is tested as a sign of cardiac risk.
A short description of a further data set: Pharmacokinetics in rat. The class given is in vivo. As to the method: (§3) The species used for the pharmacokinetic studies were rat and dog. Compound A had good to excellent oral bioavailability (>40%) in both species. Elimination half-lives ranged from 3.1 to 5.0 hours in rats and 1.5 to 2.5 hours in dogs after oral administration. […] Steady state volume of distribution in rats and dogs was 2.4 L/kg and 1.9 L/kg, respectively.

The next data set is described as follows: Pharmacokinetics in dog. In kind it is in vivo. As to the method:
as §3

A short description of data set [4]: Plasma protein binding, human. In kind it is in vitro ADME. The note with it: read-out: Plasma protein binding (PPB) (converted).
The nature of data set [5]: Plasma protein binding, monkey. In kind it is in vitro ADME. Conditions: read-out: Plasma protein binding (PPB) (converted).
The nature of data set [6]: Plasma protein binding, dog. In kind it is in vitro ADME. The note with it: read-out: Plasma protein binding (PPB) (converted).
The next data set deals with rat plasma protein. As to the kind of experiment: Plasma protein binding, rat. In kind it is in vitro ADME.
The nature of data set [7]: Plasma protein binding, mouse. In kind it is in vitro ADME. The note with it: read-out: Plasma protein binding (PPB) (converted).
Data set [8] is described as follows: Tissue distribution after oral administration in rats. The note with it: 24 hours post-dosing. The class given is in vivo.
A short description of data set [9]: Metabolism in human liver microsomes. In kind it is in vitro ADME. (Microsomes from liver hold many membrane-bound enzymes, among them those of drug oxidation.)
The nature of data set [10]: Metabolism in dog liver microsomes. In kind it is in vitro ADME.
A short description of data set [11]: Metabolism in rat liver microsomes. In kind it is in vitro ADME.
A short description of data set [12]: Metabolism in mouse liver microsomes. In kind it is in vitro ADME.
Data set [13] can be described thus: Metabolism in monkey liver microsomes. The class given is in vitro ADME.
A short description of data set [14]: Excretion after oral administration in rats. The class given is in vivo.
The target in a further data set is CYP2C9 (Homo sapiens, UniProt P11712). Nature of the data set: CYP2C9 inhibition. The class given is in vitro ADME.
Another data set relates to other CYP isozymes. Nature of the data set: Inhibition of other CYP isozymes. The class given is in vitro ADME. The note with it: human; read-out: IC50s for other CYP isozymes.
In the next data set the test system is human CYP1A2. As to the kind of experiment: CYP1A2 induction. In kind it is in vitro ADME.
The subject of another data set is human CYP2B6. As to the kind of experiment: CYP2B6 induction. In kind it is in vitro ADME.
The subject of another data set is human CYP3A. Nature of the data set: CYP3A induction. The class given is in vitro ADME.
A further data set deals with CYP3A, CYP2C8. Nature of the data set: CYP isoforms responsible for metabolism. The class given is in vitro ADME.
Data set [15] has as its system BRCA1/2 mutant ovary cancer. As to the kind of experiment: Phase I clinical safety study, capsules. The class given is in vivo, human.
For data set [16], the system named is BRCA1 mutation breast cancer xenograft. As to the kind of experiment: BRCA1 mutation breast cancer xenograft model. The class given is in vivo. Conditions: at much lower dose than olaparib.
Another data set deals with PARP2 (aa2-583) (Homo sapiens, UniProt Q9UGN5). Nature of the data set: PARP2 PARylation chemiluminescent assay. Conditions: Crystalline Form C tested. The class given is biochemical.
The nature of another data set: Solubility study. In kind it is physicochemical.
Data set [17] in a line: Long term stability studies. The class given is physicochemical. The note with it: for Assay w/w, T12: 12 months; for Assay w/w, T0: start.
A further data set is described as follows: Hygroscopicity. In kind it is physicochemical.
Data set [18] deals with Intracellular PARP activity. In kind it is cell-based. The note with it: HeLa cells, H2O2 200 μM; read-out: IC50 (nM) in PARylation assay.
Procedure: Upon incubation with hydrogen peroxide (H2O2), Intracellular PARP activity was induced and endogenous PAR level was elevated. The assay was performed as follows:
Cells were plated into a 96-well plate with clear bottom and black wall at a density of 5000 cells per well (100 μL). […] In the following day, H2O2 solution in PBS (final concentration 200 μM) was added and the plate was kept at 37° C. for 5 minutes. Then the medium was gently removed by plate inversion, and the cells were fixed by ice-cold MeOH at −20° C. for 20 minutes. […] After removal of solution and repeated wash with PBS, the PAR polymer level was estimated by ArrayScan VTI (ThermoFisher). Percent inhibition was determined on the basis of the residual enzyme activity in the presence of increasing PARP inhibitor concentration. IC50 values were calculated by fitting dose-dependent data to the four-parameter logistic model using XLfit software.
The mark [19] stands for this setting: read-out: EC50 for growth inhibition, MDA-MB-231 (Table 20).

hERG current, sequence (Q12809 whole entry): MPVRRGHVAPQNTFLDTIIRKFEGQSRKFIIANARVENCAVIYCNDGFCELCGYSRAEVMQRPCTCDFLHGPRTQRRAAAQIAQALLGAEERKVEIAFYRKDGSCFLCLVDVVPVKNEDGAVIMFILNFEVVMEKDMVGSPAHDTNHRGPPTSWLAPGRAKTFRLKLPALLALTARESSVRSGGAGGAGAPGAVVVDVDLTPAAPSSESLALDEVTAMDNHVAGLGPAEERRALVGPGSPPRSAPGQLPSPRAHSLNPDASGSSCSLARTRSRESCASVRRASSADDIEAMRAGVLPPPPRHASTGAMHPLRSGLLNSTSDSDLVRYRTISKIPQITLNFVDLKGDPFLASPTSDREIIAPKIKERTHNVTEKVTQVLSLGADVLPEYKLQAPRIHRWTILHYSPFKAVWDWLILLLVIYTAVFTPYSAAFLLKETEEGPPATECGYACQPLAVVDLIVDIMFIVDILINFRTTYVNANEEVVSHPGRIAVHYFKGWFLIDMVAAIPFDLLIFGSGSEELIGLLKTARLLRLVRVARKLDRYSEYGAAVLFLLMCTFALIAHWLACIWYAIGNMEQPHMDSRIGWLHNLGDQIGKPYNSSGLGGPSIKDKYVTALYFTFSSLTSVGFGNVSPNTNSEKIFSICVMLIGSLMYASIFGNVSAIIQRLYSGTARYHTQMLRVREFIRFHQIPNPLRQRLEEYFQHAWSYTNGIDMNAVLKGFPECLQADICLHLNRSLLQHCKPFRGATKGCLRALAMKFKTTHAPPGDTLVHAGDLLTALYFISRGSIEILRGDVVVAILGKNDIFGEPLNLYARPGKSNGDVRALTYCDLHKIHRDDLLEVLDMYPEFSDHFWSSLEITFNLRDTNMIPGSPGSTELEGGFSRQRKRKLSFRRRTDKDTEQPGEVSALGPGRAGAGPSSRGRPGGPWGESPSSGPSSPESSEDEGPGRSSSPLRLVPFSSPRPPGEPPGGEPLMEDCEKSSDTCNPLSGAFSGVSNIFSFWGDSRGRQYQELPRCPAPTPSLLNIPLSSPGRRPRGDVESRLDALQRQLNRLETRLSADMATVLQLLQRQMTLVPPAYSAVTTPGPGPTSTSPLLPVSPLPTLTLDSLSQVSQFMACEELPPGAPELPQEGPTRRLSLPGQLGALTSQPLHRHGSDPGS
PARP2 (aa2-583), sequence (Q9UGN5 2-583): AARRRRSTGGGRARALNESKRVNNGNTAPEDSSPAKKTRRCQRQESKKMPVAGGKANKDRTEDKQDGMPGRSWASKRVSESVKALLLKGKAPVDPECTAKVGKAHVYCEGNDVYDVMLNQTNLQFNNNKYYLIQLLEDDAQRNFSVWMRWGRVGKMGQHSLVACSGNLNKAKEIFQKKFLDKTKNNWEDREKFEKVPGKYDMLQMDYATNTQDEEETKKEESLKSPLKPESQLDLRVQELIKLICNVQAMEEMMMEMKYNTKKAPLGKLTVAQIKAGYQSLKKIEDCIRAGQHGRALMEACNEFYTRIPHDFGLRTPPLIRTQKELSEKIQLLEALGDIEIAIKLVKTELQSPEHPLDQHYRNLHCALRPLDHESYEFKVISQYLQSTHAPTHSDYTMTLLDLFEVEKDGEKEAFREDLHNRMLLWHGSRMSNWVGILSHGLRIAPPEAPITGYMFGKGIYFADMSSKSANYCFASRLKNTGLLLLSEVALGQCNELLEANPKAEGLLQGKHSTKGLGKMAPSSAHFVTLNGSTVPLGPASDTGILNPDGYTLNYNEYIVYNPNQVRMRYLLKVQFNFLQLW
CYP2C9, sequence (P11712 whole entry): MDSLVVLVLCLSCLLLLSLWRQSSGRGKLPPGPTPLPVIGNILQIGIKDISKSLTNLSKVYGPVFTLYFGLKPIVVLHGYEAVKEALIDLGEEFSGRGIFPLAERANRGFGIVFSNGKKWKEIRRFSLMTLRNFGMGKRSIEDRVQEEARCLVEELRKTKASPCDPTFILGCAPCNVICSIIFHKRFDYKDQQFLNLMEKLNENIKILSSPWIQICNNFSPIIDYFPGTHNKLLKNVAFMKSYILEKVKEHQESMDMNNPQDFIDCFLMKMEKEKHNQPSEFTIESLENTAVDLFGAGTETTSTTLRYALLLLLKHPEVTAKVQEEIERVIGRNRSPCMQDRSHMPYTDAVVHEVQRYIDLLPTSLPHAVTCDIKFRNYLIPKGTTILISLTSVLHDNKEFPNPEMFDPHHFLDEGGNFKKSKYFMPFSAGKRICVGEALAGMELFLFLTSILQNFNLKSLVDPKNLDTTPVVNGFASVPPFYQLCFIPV
Procedure for PARP2 (aa2-583): PARP1 and PARP2 enzymes were from the assay kits, while TNKS1 and TNKS2 enzymes were produced in-house. The assays were performed according to the manufacture's instruction. Briefly, H2A and H2B proteins were immobilized on the surface of plates and then incubated with a serial dilution of compounds and the target enzyme for 0.5 hr. Then, biotinylated NAD and DNA (no DNA needed for TNKS1 or TNKS2) were added to the wells to initiate reactions. The biotinylated PARsylation product was measured by chemiluminescence after adding streptavidin-HRP and HRP substrates.

In the case of `C[C@]12CCCN1CC1=NNC(=O)c3cc(F)cc4[nH]c2c1c34` [Compound A, (R)-2-fluoro-10a-methyl-7,8,9,10,10a,11-hexahydro-5,6,7a,11-tetraazacyclohepta[def]cyclopenta[a]fluoren-4(5H)-one], the 50% effective concentration (EC50) was roughly 9 µM with MDA-MB-231 cells (Homo sapiens, MDA-MB-231, 168 h, read-out: EC50 for growth inhibition, MDA-MB-231); roughly 9 µM with MDA-MB-231 cells (Homo sapiens, MDA-MB-231, 168 h, read-out: EC50 for growth inhibition, MDA-MB-231 (Table 20)); 0.041 ± 0.015 µM in [1] (Homo sapiens, MDA-MB-436, 168 h). Also, in [1] (BRCA1-deficient), the “sensitivity of MDA-MB-436 cells” value was “profoundly sensitive”. Further, the “inhibition of PARylation” value with PARP is on record as “Potent inhibition of PARylation”. Further, the animal survival entry in [2] was “significantly prolonged animal survival”. In addition, in the data set “Brain penetration”, the brain penetration result is listed as “significant brain penetration”. In addition, the character of toxicity entry in data set [3] (28-day recovery phase) is “dose dependent, correlated with systemic exposure and reversible”. Moreover, in [3] (up to 28 days), the “major target organ of toxicity” value is on record as “bone marrow”. The values for the IC50 against hERG current, against CYP2C9 and with other CYP isozymes were 26 µM, 6.48 µM and greater than 10 µM, respectively. The mutagenicity entry in the data set “Ames assay” is “No mutagenicity”. For the same compound, the “accumulation following multiple oral dosing” value in “Pharmacokinetics in rat” and in “Pharmacokinetics in dog” was “no accumulation” each time. Further, the bioavailability is greater than 40% in the data set “Pharmacokinetics in rat” (in vivo, po) and greater than 40% in “Pharmacokinetics in dog” (in vivo, po). The clearance in “Pharmacokinetics in rat” (in vivo, rats) lay in the range of 8.67 to 15.2 mL/min/kg; in the data set “Pharmacokinetics in dog” (in vivo, dogs) it was 18.3 to 18.5 mL/min/kg. The half-life lay within 3.1 to 5 h in “Pharmacokinetics in rat” (in vivo, rats, oral administration, read-out: Elimination half-lives) and 1.5 to 2.5 h in “Pharmacokinetics in dog” (in vivo, dogs, oral administration, read-out: Elimination half-lives). For the same compound, the Vd is 2.4 L/kg in “Pharmacokinetics in rat” (in vivo, rats, read-out: Steady state volume of distribution) and 1.9 L/kg in the data set “Pharmacokinetics in dog” (in vivo, dogs, read-out: Steady state volume of distribution). Also, the fraction unbound in data set [4] was 0.043; in data set [5], 0.111; in data set [6], 0.21; in [7], 0.15. In the data set on rat plasma protein, the “Plasma protein binding (PPB)” value is reported as 84.9%. The “organ drug concentration as % of the peak concentration” value in [8] is listed as “less than 10%”. For the same compound, the rate of metabolism entry is listed as “slowly” in data set [9]; “slowly” in data set [10]; “slowly” in data set [11]; “slowly” in data set [12]; “quickly” in data set [13]. In addition, the “excreted in urine and bile” value in data set [14] is given as “Less than 1%”. Besides, the “induction of human CYP1A2” value with human CYP1A2 was “not an inducer”. Also, in the data set with human CYP2B6, the “induction of human CYP2B6” value is given as “not an inducer”. Besides, the “induction of human CYP3A” value in the data set with human CYP3A was “not an inducer”. For the same compound, the “CYP isoform responsible for metabolism” value with CYP3A, CYP2C8 is given as “CYP3A was the major CYP isoform”. Further, the clinical response entry in data set [15] (BRCA1/2 mutant ovary cancer patients) is on record as “partial or complete responses”. For the same compound, the tumor regression entry in data set [16] is “significantly induces tumor regression”.

In the case of `C[C@]12CCCN1CC1=NNC(=O)c3cc(F)cc4[nH]c2c1c34` [Compound A sesqui-hydrate, (R)-2-fluoro-10a-methyl-7,8,9,10,10a,11-hexahydro-5,6,7a,11-tetraazacyclohepta[def]cyclopenta[a]fluoren-4(5H)-one sesqui-hydrate], the IC50 at PARP2 (aa2-583) was determined as 0.00092 µM. The “clinical safety and tolerability” value in [15] (25 subjects, 2.5-120 mg bid, capsules) was “safe and well tolerated”. Moreover, the “solubility in simulated gastric fluid (SGF)” value in “Solubility study” (SGF, pH=1.2) is 4500 µg/mL. Moreover, the solubility is roughly 4500 µg/mL in the data set “Solubility study” (simulated gastric fluid (SGF), pH 1.2, simulated gastric fluid, SGF, pH=1.2, read-out: solubility in simulated gastric fluid (SGF)) and roughly 40 µg/mL in the data set “Solubility study” (water, read-out: solubility in water). Further, the solubility in water in the data set “Solubility study” (water) was found to be 40 µg/mL. Besides, in data set [17] (25° C./60% RH and 40° C./75% RH, up to 12 months), the “crystal form and optical purity on storage” value was “no crystal form and optical purity changes were observed”. For the same compound, the “Assay w/w, T12” value in data set [17] (25° C./60% RH) worked out at 99.0%; in data set [17] (40° C./75% RH), 98.9%. Further, the “Assay w/w, T0” value was 99.1% in data set [17] (25° C./60% RH) and 99.0% in [17] (40° C./75% RH). In the data set “Hygroscopicity”, the hygroscopicity result is “slightly hygroscopic”.

Take `C[C@]1(c2nc3c(C(N)=O)cccc3[nH]2)CCCN1` [Veliparib, veliparib, reference compound]: the IC50 in [18] was determined as 2.66 nM. Moreover, the half-maximal effective concentration (EC50) in the data set with MDA-MB-231 cells (setting [19]) is greater than 10 µM; in data set [1] it was 0.82 ± 0.3 µM.

As to `O=C(c1cc(Cc2n[nH]c(=O)c3ccccc23)ccc1F)N1CCN(C(=O)C2CC2)CC1` [Olaparib, olaparib, reference compound], the EC50 was roughly 5 µM in the data set with MDA-MB-231 cells (setting [19]) and 0.021 ± 0.007 µM in data set [1].
